US20220042033A1, “COMPOSITION AND METHOD FOR CONFERRING AND/OR ENHANCING TOLERANCE AGAINST HERBICIDES BY USING VARIANTS OF PPO” (FarmHannong Co., Ltd., priority 2017, published 2022)

Assays:
Type in all cases: cell-based
[1] = test system: E. coli BT3(ΔPPO) transformed with Auxenochlorella protothecoides ApPPO1 wild type, SEQ ID NO: 1; experiment: Herbicide tolerance test in PPO-deficient E. coli BT3(ΔPPO), growth on plates; conditions: ApPPO1 WT, Table 7; light, 37° C., 16 to 20 hours; vs wild type at highest herbicide concentration
Protocol: (§1) Then, the extent of tolerance was evaluated.

[2] = test system: E. coli BT3(ΔPPO) transformed with Auxenochlorella protothecoides ApPPO1 (SEQ ID NO: 1) variant A215C (AC); experiment: as above; conditions: Table 7, light, 37° C., 16 to 20 hours, vs wild type at highest herbicide concentration
Protocol: (§2) The mutated CyPPO gene obtained from the Example 2 was transformed to BT3 (ΔPPO) strain which is deficient of PPO activity and cultured in LB media with PPO-inhibiting herbicide, thereby examining whether growth of transformed BT3 was not inhibited.
(§3) BT3 competent cells were transformed with the pET303-ApPPO1 and pET303-MxPPO plasmids and those with a mutation(s) constructed in Example 2 respectively, and were cultured in LB agar media containing carbenicillin (Gold Biotechnology, Co., Ltd.).
(§4) Single colony of E. coli transformed with each CyPPO gene was cultured in 3 ml of LB broth containing carbenicillin overnight, and then was subcultured until absorbance (OD600) reached 0.5 to 1. Then, it was diluted with LB broth to OD600=0.5. Again, the diluted solution was serially diluted 4 times by a factor of one tenth.
(§5) The LB agar media (LB 25 g/l, Bacto agar 15 g/l) containing carbenicillin (100 μg/ml) and 0 to 4,000 μM of various herbicides dissolved in DMSO was prepared. Next, 10 μl of each diluted solution was dropped on the plate and cultured at 37° C. under light (Tables 7, 9 and 10, FIGS. 2 to 6, 13 to 20) or dark (Tables 8 and 11, FIGS. 7 to 12, 21 to 24) for 16 to 20 hours. Then, the extent of tolerance was evaluated.
(§6) The extent of herbicide tolerance of the ApPPO1 or MxPPO mutated genes was evaluated by comparing that of mutated genes with that of ApPPO1 or MxPPO wild type. The relative tolerance was represented with “+” as a factor of 10 times.
(§7) In Tables 7 to 11, tolerance level was presented as ‘−’ of tolerance of wild type and of variants equivalent to that of wild type, and was done as ‘+’ per each 10 fold resistance until ‘+++++’ as maximal resistance. […] A dilution series (OD600=0.5, 0.05, 0.005, 0.0005, 0.00005) was made and spotted on LB agar plates supplemented with herbicides.

[3] = test system: E. coli BT3(ΔPPO) transformed with Auxenochlorella protothecoides ApPPO1 (SEQ ID NO: 1) variant A215L (AL); experiment: as above; conditions: Table 7, light, 37° C., 16 to 20 hours, vs wild type at highest herbicide concentration
Protocol: as §2, §3, §4, §5, §6, §7

[4] = test system: E. coli BT3(ΔPPO) transformed with Auxenochlorella protothecoides ApPPO1 (SEQ ID NO: 1) variant V360M (VM); experiment: as above; conditions: Table 7, light, 37° C., 16 to 20 hours, vs wild type at highest herbicide concentration
Protocol: as §2, §3, §4, §5, §6, §7

[5] = test system: E. coli BT3(ΔPPO) transformed with Auxenochlorella protothecoides ApPPO1 (SEQ ID NO: 1) variant Y422T (YT); experiment: as above; conditions: Table 7, light, 37° C., 16 to 20 hours, vs wild type at highest herbicide concentration
Protocol: as §2, §3, §4, §5, §6, §7

[6] = test system: E. coli BT3(ΔPPO) transformed with Auxenochlorella protothecoides ApPPO1 (SEQ ID NO: 1) variant Y422C (YC); experiment: as above; conditions: Table 7, light, 37° C., 16 to 20 hours, vs wild type at highest herbicide concentration
Protocol: as §2, §3, §4, §5, §6, §7

[7] = test system: E. coli BT3(ΔPPO) transformed with Auxenochlorella protothecoides ApPPO1 (SEQ ID NO: 1) variant Y422M (YM); experiment: as above; conditions: Table 7, light, 37° C., 16 to 20 hours, vs wild type at highest herbicide concentration
Protocol: as §2, §3, §4, §5, §6, §7

[8] = test system: E. coli BT3(ΔPPO) transformed with Auxenochlorella protothecoides ApPPO1 (SEQ ID NO: 1) variant Y422I (YI); conditions: Table 7, light, 37° C., 16 to 20 hours, vs wild type at highest herbicide concentration
Protocol: as §2, §3, §4, §5, §6, §7

[9] = test system: E. coli BT3(ΔPPO) transformed with Auxenochlorella protothecoides ApPPO1 (SEQ ID NO: 1) variant Y422L (YL); experiment: Herbicide tolerance test in PPO-deficient E. coli BT3(ΔPPO), growth on plates; conditions: Table 7, light, 37° C., 16 to 20 hours, vs wild type at highest herbicide concentration
[10] = test system: E. coli BT3(ΔPPO) transformed with Myxococcus xanthus MxPPO wild type, SEQ ID NO: 3; experiment: as above; conditions: MxPPO WT, Table 9; light; tiafenacil to 2000 μM, saflufenacil to 200 μM, flumioxazin to 100 μM
Protocol: as §1

[11] = test system: E. coli BT3(ΔPPO) transformed with Myxococcus xanthus MxPPO (SEQ ID NO: 3) variant A170C; experiment: as above; conditions: Table 9, light, tiafenacil to 2000 μM, saflufenacil to 200 μM, flumioxazin to 100 μM
Protocol: as §2, §3, §4, §5
(§8) The extent of herbicide tolerance of the ApPPO1 or MxPPO mutated genes was evaluated by comparing that of mutated genes with that of ApPPO1 or MxPPO wild type. […]

[12] = test system: E. coli BT3(ΔPPO) transformed with Myxococcus xanthus MxPPO (SEQ ID NO: 3) variant A170L; experiment: as above; conditions: Table 9, light, tiafenacil to 2000 μM, saflufenacil to 200 μM, flumioxazin to 100 μM
Protocol: as §2, §3, §4, §5, §8

[13] = test system: E. coli BT3(ΔPPO) transformed with Myxococcus xanthus MxPPO (SEQ ID NO: 3) variant I311M; experiment: as above; conditions: Table 9, light, tiafenacil to 2000 μM, saflufenacil to 200 μM, flumioxazin to 100 μM
Protocol: as §2, §3, §4, §5, §8

[14] = test system: E. coli BT3(ΔPPO) transformed with Myxococcus xanthus MxPPO (SEQ ID NO: 3) variant M365I; experiment: as above; conditions: Table 9, light, tiafenacil to 2000 μM, saflufenacil to 200 μM, flumioxazin to 100 μM
Protocol: as §2, §3, §4, §5, §8

[15] = test system: E. coli BT3(ΔPPO) transformed with Myxococcus xanthus MxPPO (SEQ ID NO: 3) variant M365L; experiment: as above; conditions: Table 9, light, tiafenacil to 2000 μM, saflufenacil to 200 μM, flumioxazin to 100 μM
Protocol: as §2, §3, §4, §5, §8

[16] = test system: E. coli BT3(ΔPPO) transformed with Myxococcus xanthus MxPPO (SEQ ID NO: 3) variant M365V; experiment: as above; conditions: Table 9, light, tiafenacil to 2000 μM, saflufenacil to 200 μM, flumioxazin to 100 μM
Protocol: as §2, §3, §4, §5, §8

SMILES	relative herbicide tolerance level [1]	relative herbicide tolerance level [2]	relative herbicide tolerance level [3]	relative herbicide tolerance level [4]	relative herbicide tolerance level [5]	relative herbicide tolerance level [6]	relative herbicide tolerance level [7]	relative herbicide tolerance level [8]	relative herbicide tolerance level [9]	relative herbicide tolerance level [10]	relative herbicide tolerance level [11]	relative herbicide tolerance level [12]	relative herbicide tolerance level [13]	relative herbicide tolerance level [14]	relative herbicide tolerance level [15]	relative herbicide tolerance level [16]
CS(=O)(=O)NC(=O)c1cc(Oc2ccc(C(F)(F)F)cc2Cl)ccc1[N+](=O)[O-] [Fomesafen, fomesafen]	−	+ (1-9 fold higher tolerance)	+++ (100-999 fold higher tolerance)	+ (1-9 fold higher tolerance)	+ (1-9 fold higher tolerance)	++ (10-99 fold higher tolerance)	+ (1-9 fold higher tolerance)	+ (1-9 fold higher tolerance)	+ (1-9 fold higher tolerance)							
O=C(O)c1cc(Oc2ccc(C(F)(F)F)cc2Cl)ccc1[N+](=O)[O-] [acifluorfen]	−	++ (10-99 fold higher tolerance)	+++ (100-999 fold higher tolerance)	++ (10-99 fold higher tolerance)	+ (1-9 fold higher tolerance)	++ (10-99 fold higher tolerance)	++ (10-99 fold higher tolerance)	+ (1-9 fold higher tolerance)	++ (10-99 fold higher tolerance)							
CC(C)=C1OC(=O)N(c2cc(OC3CCCC3)c(Cl)cc2F)C1=O [pentoxazone]	−	+ (1-9 fold higher tolerance)		+ (1-9 fold higher tolerance)		+++ (100-999 fold higher tolerance)		++ (10-99 fold higher tolerance)								
C#CCN(C)c1c(C#N)cnn1-c1nn2c(c1Cl)CCCC2 [pyraclonil]	−	+ (1-9 fold higher tolerance)	++ (10-99 fold higher tolerance)	+ (1-9 fold higher tolerance)	+ (1-9 fold higher tolerance)	++ (10-99 fold higher tolerance)	++ (10-99 fold higher tolerance)	+ (1-9 fold higher tolerance)	++ (10-99 fold higher tolerance)							
CCOC(=O)COc1cc(-c2nn(C)c(OC(F)F)c2Cl)c(F)cc1Cl [pyraflufenethyl, pyraflufen-ethyl]	−		+++ (100-999 fold higher tolerance)			+++ (100-999 fold higher tolerance)		++ (10-99 fold higher tolerance)								
CC(C)N(C)S(=O)(=O)NC(=O)c1cc(-n2c(=O)cc(C(F)(F)F)n(C)c2=O)c(F)cc1Cl [saflufenacil]	−	+ (1-9 fold higher tolerance)	++++ (1,000-9,999 fold higher tolerance)	+++ (100-999 fold higher tolerance)	++++ (1,000-9,999 fold higher tolerance)	+++ (100-999 fold higher tolerance)	+++++ (more than 10,000 fold higher tolerance)	+++++ (more than 10,000 fold higher tolerance)	++++ (1,000-9,999 fold higher tolerance)	−	+++ (100-999 fold higher tolerance)	++ (10-99 fold higher tolerance)	++ (10-99 fold higher tolerance)	++ (10-99 fold higher tolerance)	++ (10-99 fold higher tolerance)	+++ (100-999 fold higher tolerance)
